From patent US7977336B2, “Aminopyrimidine derivatives as PLK1 inhibitors” (Banyu Pharmaceutical Co. Ltd, priority 2006, dated 2011)
pEC50, pIC50: −log10 of the molar value.

Key:
PLK1 (Wild Type) = biological target: T1, PLK1 (Wild Type) (Homo sapiens, UniProt P53350); assay: Inhibitory effect against PLK1 activity (Method B), PLK1 wild type, [γ-33P]ATP peptide phosphorylation; type: biochemical; details: 10 μM ATP, 20 μM substrate peptide, 25° C., 120 minutes
T1 construct: the N terminus of a full-length cDNA of a wild type PLK1 is fused with GST; purchased Carna Biosciences Inc; host or cells: insect cell (baculovirus)
T1 sequence (P53350 whole entry, the tested form may be a part): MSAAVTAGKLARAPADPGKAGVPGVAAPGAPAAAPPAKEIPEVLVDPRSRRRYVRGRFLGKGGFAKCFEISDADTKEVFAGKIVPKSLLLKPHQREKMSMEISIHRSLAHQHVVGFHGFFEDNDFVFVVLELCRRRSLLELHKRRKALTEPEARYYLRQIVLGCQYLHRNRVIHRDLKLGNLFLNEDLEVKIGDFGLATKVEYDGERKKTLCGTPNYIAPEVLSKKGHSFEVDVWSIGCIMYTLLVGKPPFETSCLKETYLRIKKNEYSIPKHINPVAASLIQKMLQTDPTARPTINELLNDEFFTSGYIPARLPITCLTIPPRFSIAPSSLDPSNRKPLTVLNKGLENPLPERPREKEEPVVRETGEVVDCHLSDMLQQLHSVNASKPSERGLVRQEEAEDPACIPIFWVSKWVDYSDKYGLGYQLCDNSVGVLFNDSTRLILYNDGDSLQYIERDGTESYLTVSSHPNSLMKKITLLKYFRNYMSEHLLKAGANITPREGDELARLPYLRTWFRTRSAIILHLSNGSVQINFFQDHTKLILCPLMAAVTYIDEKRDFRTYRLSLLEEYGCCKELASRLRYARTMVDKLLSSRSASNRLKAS
Excerpt: 2. Measurement of Inhibitory Effect against PLK1 Activity (Method B)
Human PLK1 was purchased from Carna Biosciences Inc. According to the Product Information from Carna Biosciences Inc., the present enzyme is an enzyme obtained by preparing a baculovirus for which the N terminus of a full-length cDNA of a wild type PLK1 is fused with GST (glutathione S-transferase), followed by highly expressing PLK1 transfected into an insect cell as a GST-fused protein, and then carrying out a purification with the use of glutathione sepharose chromatography.
For the measurement of the PLK1 activity, a synthetic peptide (arginine-arginine-arginine-aspartic acid-glutamic acid-leucine-methionine-glutamic acid-alanine-serine-phenylalanine-alanine-aspartic acid-glutamine-glutamic acid-alanine-lysine-valine) (SEQ. ID. NO.: 1) in which the serine surrounding sequence of the amino acid sequence No. 198 of CDC25C having been reported as the site for PLK1 substrate [EMBO Report, 3rd edition, 341 (2002)] is altered, was used as a substrate for the PLK1.
The reaction was carried out in accordance with the method as described by Toyoshima-Morimoto et al. [Nature, Vol. 410, 215-220, (2001)]. The volume of the reaction solution was 10.5 μl and the composition of the reaction buffer was a 20 mM Tris-HCl buffer (pH 7.4)/10 mM magnesium chloride/0.5 mM dithiothreitol/1 mM EGTA (ethylene glycol-bis (beta-aminoethylether-N,N,N′,N′-tetraacetic acid). Thereto, purified PLK1, 20 μM of the substrate peptide, 10 μM of non-labeled adenosine triphosphate (ATP), and 0.3 μCi [γ-^33P]-labeled ATP (>2500 Ci/mmole) were added to perform the reaction at a reaction temperature of 25° C. for 120 minutes. Thereafter, 20 μI of a 350 mM phosphate buffer was added to the reaction system to terminate the reaction, and the resultant solution was spotted onto a multi-screen phosphocellulose filter on a 384-well plate. After the phosphocellulose filter is washed with a 75 mM phosphate buffer and then dried, the radioactivity was measured with a liquid cintillation counter. The non-labeled and [γ-^33P]-labeled ATPs, and the multi-screen phosphocellulose filter were purchased from GE Healthcare Bio-Sciences, and Millipore Corporation, respectively.
Addition of the compound of the present invention to the reaction system was carried out by adding 0.5 μl of the solution prepared by preliminarily dissolving the compound in dimethylsulfoxide at a 20-fold concentration of the final concentration. A control was provided by adding 0.5 μl of dimethylsulfoxide to the reaction system.

HeLaS3 cells = assay: Inhibitory effect against cell proliferation: PLK1 inhibition at cellular level (M phase arrest, phospho-histone H3); type: cell-based; details: Homo sapiens, HeLa S3, 18 hours after addition, concentration inducing 50% of maximum ratio of cells arrested at M phase (histone H3 Ser10 phosphorylation)
Experimental: 3. Measurement of the Inhibitory Effect against Cell Proliferation: Measurement of the Inhibitory Activity Against PLK1 at Cellular Level
For the measurement of the PLK 1 inhibitory activity of the compound at a cellular level, human uterine cervix cancer cell lines HeLaS3 cells were used. The HeLaS3 cell was obtained from American Type Culture Collection (ATTC), and cultured in a CO2-incubator of saturated steam by using Dulbecco's Modified Eagle's Medium containing 10% fetal calf serum at 37° C. in the presence of 5% CO2.
It has been reported that PLK 1 plays an important role in various stages of mitotic phase (M-phase) in mammalian cells (Nature Review Molecular Cell Biology (Nat. Rev. Mol. Cell. Biol.), Vol. 5, 429, (2004)). In fact, when mammalian cells are treated with PLK 1 siRNA to control the expression level, the cell cycle progression is inhibited and thus the cells are arrested at M phase. At the time, when the phosphorylation level of 10th serine residue on histone H3, which is thought to be required for a chromosome condensation in M phase, is examined, then it is observed that the level is enhanced to a high level. Thus, after treating the cells with the compound according to the invention, the phosphorylation level of histone H3 was examined by the indirect fluorescent antibody technique; the M phase cells were identified by using the level thereof as an indicator to analyze the ratio of cells arrested at M phase; and further EC50 value of each compound was calculated to evaluate the PLK1 inhibitory activity at a cellular level.
First, HeLaS3 cells were seeded into a lysine-treated 96-well plate (Falcon Corp.) in the proportion of 3,000 per one well, and allowed to stand still in the above-mentioned CO2 incubator. 24 hours after the seeding, the compound according to the invention, which is diluted in series, was added into each well of the plate, and further allowed to stand still in the CO2 incubator. 18 hours after the addition of the compound according to the invention, the culture medium containing the compound according to the invention in each well of the plate was removed, and then 100 μL of ice-cold 100% methanol (Wako Pure Chemical Industries, Ltd.) was added, to carry out cell fixation for 10 minutes and treatment of increasing the membrane permeability. Subsequently, to the wells in which the methanol was removed, 50 μL of 1% BSA/PBS was added, and then blocking was carried out for 30 minutes. Thereafter, for the primary antibody reaction, 50 μL of 1% BSA/PBS containing a […] Anti-phospho Histone H3 (Ser10) antibody (Upstate Corp.) was added to the wells, and the plate was left over at room temperature for 90 minutes. After terminating the reaction, each well was once washed with PBS; and for the second antibody reaction, 50 μL of 1% BSA/PBS containing […] Cy5-labelled antirabbit IgG (H+L) antibody (Chemicon) and 10 ug/mL DAPI (Sigma) which is a nucleus staining regent, was added, and further left over at room temperature for 90 minutes. After terminating the reaction, the reaction solution in wells was removed and replaced with 100 μL of PBS, and then fluorescence images were captured by using IN Cell Analyzer 1000 (manufactured by GE Amersham) to analyze the ratio of M phase cells (Mitotic index) in each view. When the maximum value of the ratio of cells arrested at M phase which can be induced by each drug is assumed as 100%, the drug concentration required for inducing 50% out of that 100% is defined as EC50.

PLK1-T210D = biological target: T2, PLK1-T210D (Homo sapiens, UniProt P53350, T210D); assay: Inhibitory effect against PLK1 activity (Method A), PLK1-T210D, [γ-33P]ATP peptide phosphorylation; type: biochemical; details: 50 μM ATP, 50 μM substrate peptide, 25° C., 20 minutes
T2 construct: GST (N, cleaved yes); made in house; host or cells: Spodoptera frugiperda Sf9 insect cells (baculovirus)
T2 sequence (P53350 whole entry T210D): as the sequence (P53350 whole entry, the tested form may be a part) above, with T210D counted along it
Excerpt: 1. Measurement of the Inhibitory Effect against PLK 1 Activity (Method A)
It has been known that 210th codon of human PLK1 which originally codes for threonine can be changed to an active type by altering the site into aspartic acid [Molecular and Cell Biology (Mol. Cell. Biol.), 17th edition, 3408 (1997)]. In order to obtain a human active type PLK1 protein, cDNA of mutated PLK1 (PLK1-T210D) of which the 210th codon codes for aspartic acid by substituting a base in the 210th codon of human PLK1 cDNA, was prepared. A baculovirus for which the N terminus of the PLK1-T210D cDNA is fused with GST (glutathione S-transferase) was prepared, and then the PLK1-T210D transfected into a Spodoptera frugiperda (Sf) 9 insect cell was highly expressed as a GST-fused protein. The cells were recovered and suspended in a lysis buffer (50 mM tris-hydrochloric acid buffer (pH 7.4)/150 mM sodium chloride/1 mM EDTA (ethylenediamine tetraacetic acid)/1 mM dithiothreitol/0.1% polyoxyethylene sorbitan monolaurate) to break cells with sonicator, and supernatant was recovered after a centrifugation. The supernatant was reacted on glutathione sepharose beads, and then the beads were washed with a lysis buffer. Thereafter, the beads were reacted in a lysis buffer containing Precision Protease (available from GE Healthcare Bioscience Company) to recover supernatant. […]
The reaction was carried out in accordance with the method of Toyoshima-Morimoto et al. [Nature, Vol. 410, 215-220, (2001)]. […] After washing the phosphocellulose filter with 75 mM phosphate buffer, the filter was dried to measure the radioactivity with a liquid scintillation counter. […]

Row | SMILES | pIC50 (PLK1 (Wild Type)) | pEC50 (HeLaS3 cells) | pIC50 (PLK1-T210D)
1 | CCc1cccn2c(-c3nc(N[C@@H](C)c4ccc(C(O)C5CCN(C)CC5)cc4)ncc3C#N)cnc12 (single isomer, unassigned) [Example 24] | 8.85 | 8.34 | 8.39
2 | C[C@H](Nc1ncc(F)c(-c2cnc3c(Cl)cccn23)n1)c1ccc(C(O)C(C)(C)N(C)C)cc1 (single isomer, unassigned) [Example 85] | 8.47 | 7.96 | 
3 | CC(C)N1CC(C(O)c2ccc([C@H](C)Nc3ncc(F)c(-c4cnc5c(Cl)cccn45)n3)cc2)C1 (single isomer, unassigned) [Example 89] | 8.62 | 7.86 | 
4 | CCc1cccn2c(-c3nc(N[C@@H](C)c4ccc(C(O)[C@H]5CCCN5C)cc4)ncc3C#N)cnc12 (stereo partly drawn) [Example 55, 4-(8-ethylimidazo[1,2-a]pyridin-3-yl)-2-{[(1S)-1-(4-{hydroxy[(2R)-1-methylpyrrolidin-2-yl]methyl}phenyl)ethyl]amino}pyrimidine-5-carbonitrile] |  | 8.30 | 7.96
5 | Cc1cnc(N[C@@H](C)c2ccc([C@H](O)CNC(C)(C)C)cc2)nc1-c1cnc2c(C3CC3)cccn12 [Example 73, (1S)-2-(tert-butylamino)-1-[4-((1S)-1-{[4-(8-cyclopropylimidazo[1,2-a]pyridin-3-yl)-5-methylpyrimidin-2-yl]amino}ethyl)phenyl]ethanol] | 8.00 | 8.24 | 

Compounds with a higher pEC50 (HeLaS3 cells), results first:

Row | pIC50 (PLK1 (Wild Type)) | pEC50 (HeLaS3 cells) | pIC50 (PLK1-T210D) | SMILES
6 | 8.85 | 8.40 | 8.15 | CCc1cccn2c(-c3nc(N[C@@H](C)c4ccc(C(O)[C@@H]5CCCN(C)C5)cc4)ncc3C#N)cnc12 (single isomer, unassigned) [Example 43]
7 | 8.64 | 8.59 |  | CCc1cccn2c(-c3nc(N[C@@H](C)c4ccc([C@H](O)CNC(C)(C)C)cc4)ncc3C#N)cnc12 [Example 5, 2-[((1S)-1-{4-[(1S)-2-(tert-butylamino)-1-hydroxyethyl]phenyl}ethyl)amino]-4-(8-ethylimidazo[1,2-a]pyridin-3-yl)pyrimidine-5-carbonitrile]
8 | 8.74 | 8.54 |  | C[C@H](Nc1ncc(C#N)c(-c2cnc3c(C4CC4)cccn23)n1)c1ccc([C@H](O)[C@@]2(C)CCCN2C)cc1 [Example 66, 4-(8-cyclopropylimidazo[1,2-a]pyridin-3-yl)-2-[((1S)-1-{4-[(S)-[(2R)-1,2-dimethylpyrrolidin-2-yl](hydroxy)methyl]phenyl}ethyl)amino]pyrimidine-5-carbonitrile]
9 | 8.59 | 8.40 |  | C[C@H](Nc1ncc(F)c(-c2cnc3c(Cl)cccn23)n1)c1ccc([C@H](O)CNC(C)(C)C)cc1 [Example 67, (1S)-2-(tert-butylamino)-1-[4-((1S)-1-{[4-(8-chloroimidazo[1,2-a]pyridin-3-yl)-5-fluoropyrimidin-2-yl]amino}ethyl)phenyl]ethanol]
10 | 8.66 | 8.46 |  | C[C@H](Nc1ncc(F)c(-c2cnc3c(Cl)cccn23)n1)c1ccc([C@H](O)CNC2(C)CCCC2)cc1 [Example 71, (1S)-1-[4-((1S)-1-{[4-(8-chloroimidazo[1,2-a]pyridin-3-yl)-5-fluoropyrimidin-2-yl]amino}ethyl)phenyl]-2-[(1-methylcyclopentyl)amino]ethanol]
